PMC5823406, “Vehicle development, pharmacokinetics and toxicity of the anti-invasive agent 4-fluoro-3’,4’,5’-trimethoxychalcone in rodents” (PLoS ONE, 2018)
Where “and” joins values, the source holds several entries; their conditions need not be identical. Equal values may be shown once. Read-outs that look alike come from different tables or passages of the source. Marks after values point to notes of the source that are not given here.

Experiment: Plasma PK study (IV and PO) in male Sprague-Dawley rats
Type: in vivo, rat
Text: Six male Sprague-Dawley rats (200–350 g) were obtained from Hilltop Labs. Animals were assigned randomly to two groups (IV or PO) of 3 upon arrival. Duration of acclimation was approximately two days. Animals were healthy at the start of the trial.
Animals subjected to IV dosing were fitted with a jugular vein cannula (JVC) under isoflurane anesthesia (induction 4%, maintenance 2.0%, oxygen 1 L/min) and under an external heating source. Post-operative analgesia was provided in the form of 2.5–5 mg/kg of ketoprofen subcutaneously. Benzylpenicillin (60 mg) was given intramuscularly to prevent infection. Sterile 0.9% NaCl was injected subcutaneously under the back skin using a 21G needle during recovery to replace fluid loss. Animals were placed under a heat lamp and monitored until they regained full consciousness. […] Surgically modified animals were housed individually, monitored hourly for the first 4 h and then daily over a 2-day recovery period.
Animals were maintained in a well-controlled temperature (20–24°C) and humidity (30%-70%) environment with 12 h light/dark cycles. Conventional cages with wood chip bedding were used. Animals were identified by a cage label. The study was not blinded. Food was withheld from all animals for a minimum of twelve hours prior to test article administration and returned at approximately 4 h post-dose. Water was supplied ad libitum.
C16 was dosed in cassette with two undisclosed compounds of similar chemical structure. Dosing solutions were prepared in 100% DMSO on the day of dosing. The concentration of C16 was 1 and 5 mg/mL for IV and PO dosing, respectively. C16 was administered at 1 mg/kg IV via JVC or at 10 mg/kg PO.
Sampling took place pre-dose, 5, 15, 30 min, 1, 2, 4, and 8 h post-dose. Blood samples (0.3 mL) were collected via the JVC, placed into chilled tubes containing sodium heparin and kept on ice until centrifugation. Plasma preparation involved centrifugation at a temperature of 2 to 8°C at 3,000 g for 5 min. Plasma samples were stored frozen at -70°C until analysis. No necropsy was performed.
Pharmacokinetic parameters were estimated by a non-compartmental model using WinNonlin (v5.2.1 or higher) software. The maximum plasma/blood concentrations (c0) after IV dosing were estimated by extrapolation of the first two time points back to t = 0. The maximum blood concentration (cmax) and the time to reach maximum blood drug concentration (tmax) after PO dosing were derived from the data. The area under the time-concentration curve (AUC) was calculated using the linear trapezoidal rule with calculation to the last quantifiable data point, and with extrapolation to infinity if applicable. Plasma/blood half-life (t1/2) was calculated from 0.693/slope of the terminal elimination phase. Mean residence time (MRT) was calculated by dividing the area under the moment curve (AUMC) by the AUC. Clearance (CL) was calculated from dose/AUC. Steady-state volume of distribution (Vss) was calculated from CL*MRT. Bioavailability was determined by dividing the individual dose-normalized PO AUC values by the respective average dose-normalized intravenous (IV) AUC value. Samples that were below the limit of quantification were not used in the calculation of averages, and were treated as zero for pharmacokinetic data analysis. […]
(mAU.s) (mAU.s) peak area) (mAU.s) (mAU.s) peak area) (mAU.s) (mAU.s) peak area) […]
a. Dosing solution preparation
The dosing solution was prepared as a cassette to contain all three test articles in the same solution. IV dosing was fixed at 2 mg/mL of C16 and the two other test articles in neat DMSO as the vehicle, with a dosing volume 0.5 mL/kg (slow injection). PO dosing was set at 10 mg/mL of C16 and the two other test articles in neat DMSO as the vehicle, with a dosing volume of 1 mL/kg.
Individual plasma concentrations for C16 are shown in Table F and Table G. All data are expressed as ng/mL of the […]
free drug. […]

[1] = male, Sprague-Dawley, rat, plasma, iv, 1 mg/kg, male Sprague-Dawley rat, IV 1 mg/kg, vehicle DMSO, average
[2] = male, Sprague-Dawley, rat, plasma, iv, 1 mg/kg, rat plasma, IV 1 mg/kg, individual animals 1-3
[3] = male, Sprague-Dawley, rat, plasma, po, 10 mg/kg, male Sprague-Dawley rat, PO 10 mg/kg, vehicle DMSO, average
[4] = male, Sprague-Dawley, rat, plasma, po, 10 mg/kg, male Sprague-Dawley rat, PO 10 mg/kg, vehicle DMSO, calculated for two out of three animals
[5] = plasma, male Sprague-Dawley rat, IV 1 mg/kg, vehicle DMSO, average
[6] = rat plasma, IV 1 mg/kg, individual animals 1-3, 1 mg/kg
[7] = rat plasma, PO 10 mg/kg, individual animals 4-6, 10 mg/kg
[8] = rat plasma, PO 10 mg/kg, individual animals 5-6, 10 mg/kg

COc1cc(C(=O)/C=C/c2ccc(F)cc2)cc(OC)c1OC [C16, 4-fluoro-3’,4’,5’-trimethoxychalcone]
AUC(0-inf) [1]: 215 ng·h/mL | AUC(0-t) [1]: 211 ng·h/mL | MRT last [1]: 0.76 h | clearance [1]: 82.5 mL/min/kg | half-life [1]: 1.93 h | C0 (male, Sprague-Dawley, rat, plasma, iv, 1 mg/kg, male Sprague-Dawley rat, IV 1 mg/kg, vehicle DMSO, average, extrapolated to t = 0): 1260 ng/mL | Vd (male, Sprague-Dawley, rat, plasma, iv, 1 mg/kg, plasma, male Sprague-Dawley rat, IV 1 mg/kg, vehicle DMSO, average, read-out: Vss): 4.77 L/kg | Tmax (male, Sprague-Dawley, rat, plasma, iv, 1 mg/kg, plasma, male Sprague-Dawley rat, IV 1 mg/kg, vehicle DMSO, average, read-out: tmax): 0 h | AUC(0-inf) [2]: 227 ng·h/mL | AUC(0-t) [2]: 224 ng·h/mL | MRT last [2]: 0.7 h | clearance [2]: 73.3 mL/min/kg | half-life [2]: 1.8 h | Tmax (male, Sprague-Dawley, rat, plasma, iv, 1 mg/kg, rat plasma, IV 1 mg/kg, individual animals 1-3, read-out: tmax): 0 h | concentration at 0.5 h (male, Sprague-Dawley, rat, plasma, iv, 1 mg/kg, rat, IV 1 mg/kg, 0.50 h, animals 1-3, read-out: Individual plasma concentration): 32.4 ng/mL | concentration at 1 h (male, Sprague-Dawley, rat, plasma, iv, 1 mg/kg, rat, IV 1 mg/kg, 1.0 h, animals 1-3, read-out: Individual plasma concentration): 23.1 ng/mL | concentration at 2 h (male, Sprague-Dawley, rat, plasma, iv, 1 mg/kg, rat, IV 1 mg/kg, 2.0 h, animals 1-3, read-out: Individual plasma concentration): 14.3 ng/mL | concentration at 4 h (male, Sprague-Dawley, rat, plasma, iv, 1 mg/kg, rat, IV 1 mg/kg, 4.0 h, animals 1-3, read-out: Individual plasma concentration): 4.94 ng/mL | concentration at 8 h (male, Sprague-Dawley, rat, plasma, iv, 1 mg/kg, rat, IV 1 mg/kg, 8.0 h, animals 1-3, read-out: Individual plasma concentration): 1.34 ng/mL | AUC(0-t) [3]: 146 ng·h/mL | MRT last [3]: 3.67 h | AUC(0-inf) [4]: 161 ng·h/mL | half-life [4]: 3.67 h | Bioavailability (male, Sprague-Dawley, rat, plasma, po, 10 mg/kg, plasma, male Sprague-Dawley rat, PO 10 mg/kg, vehicle DMSO, average, read-out: Bioavailability): 6.91% | cmax (male, Sprague-Dawley, rat, plasma, po, 10 mg/kg, plasma, male Sprague-Dawley rat, PO 10 mg/kg, vehicle DMSO, average, read-out: cmax): 32.2 ng/mL | Tmax (male, Sprague-Dawley, rat, plasma, po, 10 mg/kg, plasma, male Sprague-Dawley rat, PO 10 mg/kg, vehicle DMSO, average, read-out: tmax): 2.83 h | MRT last (male, Sprague-Dawley, rat, plasma, po, 10 mg/kg, rat plasma, PO 10 mg/kg, individual animals 4-6): 4.92 h | concentration at 0.5 h (male, Sprague-Dawley, rat, plasma, po, 10 mg/kg, rat, PO 10 mg/kg, 0.50 h, animals 4-6, read-out: Individual plasma concentration): 22.5 ng/mL | concentration at 2 h (male, Sprague-Dawley, rat, plasma, po, 10 mg/kg, rat, PO 10 mg/kg, 2.0 h, animals 4-6, read-out: Individual plasma concentration): 15.1 ng/mL | Dose-normalized AUClast [5]: 211 kg·ng·h/mL/mg | Dose-normalized AUC∞ [5]: 215 kg·ng·h/mL/mg | Dose-normalized AUClast (plasma, male Sprague-Dawley rat, PO 10 mg/kg, vehicle DMSO, average): 14.6 kg·ng·h/mL/mg | Dose-normalized AUC∞ (plasma, male Sprague-Dawley rat, PO 10 mg/kg, vehicle DMSO, calculated for two out of three animals): 16.1 ^f h∙kg ng/mL/mg | AUClast [6]: 145 ng·h/mL and 264 ng·h/mL | AUC∞ [6]: 149 ng·h/mL and 269 ng·h/mL | CL [6]: 112 mL/min/kg and 62 mL/min/kg | MRTlast [6]: 0.87 h and 0.71 h | Vss [6]: 3.73 L/kg and 7.30 L/kg and 3.27 L/kg | c0 [6]: 1718 ng/mL and 659 ng/mL and 1395 ng/mL | t1/2 [6]: 2.00 h | AUClast [7]: 236 ng·h/mL and 88.0 ng·h/mL and 114 ng·h/mL | Bioavailability [7]: 11.2% and 4.17% and 5.39% | Dose Normalized AUClast [7]: 23.6 kg·ng·h/mL/mg and 8.80 kg·ng·h/mL/mg and 11.4 kg·ng·h/mL/mg | MRTlast [7]: 3.60 h and 2.48 h | Tmax [7]: 8.00 h | cmax [7]: 47.1 ng/mL and 15.9 ng/mL and 33.5 ng/mL | AUC∞ [8]: 219 ng·h/mL | Dose Normalized AUC∞ [8]: 10.2 kg·ng·h/mL/mg and 21.9 kg·ng·h/mL/mg | t1/2 [8]: 11.0 h | Adverse effects after intravenous and oral administration (rat, 1 mg/kg IV and 10 mg/kg PO, cassette in 100% DMSO): No adverse effects were observed | Individual plasma concentration (rat, IV 1 mg/kg, 0.083 h, animals 1-3, 1 mg/kg): 568 ng/mL and 345 ng/mL and 693 ng/mL | Individual plasma concentration (rat, IV 1 mg/kg, 0.25 h, animals 1-3, 1 mg/kg): 62.1 ng/mL and 94.6 ng/mL and 171 ng/mL | Individual plasma concentration (rat, IV 1 mg/kg, 0.50 h, animals 1-3, 1 mg/kg): 31.9 ng/mL and 63.2 ng/mL | Individual plasma concentration (rat, IV 1 mg/kg, 1.0 h, animals 1-3, 1 mg/kg): 19.1 ng/mL and 25.4 ng/mL | Individual plasma concentration (rat, IV 1 mg/kg, 2.0 h, animals 1-3, 1 mg/kg): 8.99 ng/mL and 12.6 ng/mL | Individual plasma concentration (rat, IV 1 mg/kg, 4.0 h, animals 1-3, 1 mg/kg): 4.34 ng/mL and 6.41 ng/mL | Individual plasma concentration (rat, IV 1 mg/kg, 8.0 h, animals 1-3, 1 mg/kg): 1.12 ng/mL and 1.58 ng/mL | Individual plasma concentration (rat, PO 10 mg/kg, 0.25 h, animals 4-6, 10 mg/kg): 21.8 ng/mL and 15.9 ng/mL and 33.5 ng/mL | Individual plasma concentration (rat, PO 10 mg/kg, 0.50 h, animals 4-6, 10 mg/kg): 14.8 ng/mL and 24.0 ng/mL | Individual plasma concentration (rat, PO 10 mg/kg, 1.0 h, animals 4-6, 10 mg/kg): 28.3 ng/mL and 13.6 ng/mL and 22.0 ng/mL | Individual plasma concentration (rat, PO 10 mg/kg, 2.0 h, animals 4-6, 10 mg/kg): 11.4 ng/mL and 18.2 ng/mL | Individual plasma concentration (rat, PO 10 mg/kg, 4.0 h, animals 4-6, 10 mg/kg): 27.9 ng/mL and 11.7 ng/mL and 13.6 ng/mL | Individual plasma concentration (rat, PO 10 mg/kg, 8.0 h, animals 4-6, 10 mg/kg): 47.1 ng/mL and 8.04 ng/mL and 5.96 ng/mL
